Measured values as given in US12502338B2, “Dental glass ionomer cement” (GC Corporation, priority 2020, dated 2025).

assay: Water solubility / water insolubility by visual observation; type: physicochemical; details: 0.4 g sample in 4 g distilled water, 20° C., 30 minutes
Protocol: As used herein and in the claims, a water-soluble compound means a compound having a solubility in water of 10 g/100 g H2O or more at 20° C.
4 g of distilled water and 0.4 g of a sample were sufficiently stirred at 20° C., allowed to stand for 30 minutes, and then visually observed. When white turbidity and biphasic separation were not observed, it was judged to be water soluble. When white turbidity or biphasic separation was observed, it was judged to be water insoluble.

Compound | water solubility / water insolubility
C=C(C)C(=O)OCCOCCOCCOC(=O)C(=C)C [TEGDMA, triethylene glycol dimethacrylate] | WATER-SOLUBLE
C=C(C)C(=O)OCCO [HEMA, hydroxyethyl methacrylate] | WATER-SOLUBLE
C=CC(=O)NCCO [HEAA, hydroxyethyl acrylamide] | WATER-SOLUBLE
isocyanuric acid EO-modified trimethacrylate [UA-7100] | WATER-SOLUBLE
C=C(C)C(=O)OCCOC(=O)NCCC(C)CC(C)(C)CNC(=O)OCCOC(=O)C(=C)C (centres unmarked) [UDMA, di-2-methacryloxyethyl-2,2,4-triethylhexamethylene dicarbamate] | WATER-SOLUBLE
